Results reported in US11051515B2, “3-acyl-benzamides and their use as herbicides” (Bayer Aktiengesellschaft, priority 2017, dated 2021).

Tests used:
ALOMY [1] = assay: Pre-emergence action against ALOMY; type: in vivo, Alopecurus myosuroides; settings: dosage 320 g/ha, pre-emergence, scored visually after 3 weeks vs untreated controls, 100% = plants have died, 0% = like control plants
How it was run: (§1)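 Seeds sown in sandy loam in wood-fiber pots and covered with soil. Greenhouse growth; visual damage scored after 3 weeks versus untreated controls (100% = dead, 0% = like control).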

AVEFA [2] = assay: Pre-emergence action against AVEFA; type: in vivo, Avena fatua; settings: dosage 320 g/ha, scored visually after 3 weeks vs untreated controls
How it was run: as §1

DIGSA [3] = assay: Pre-emergence action against DIGSA; type: in vivo, Digitaria sanguinalis; settings: dosage 320 g/ha, scored visually after 3 weeks vs untreated controls
How it was run: as §1

ECHCG [4] = assay: Pre-emergence action against ECHCG; type: in vivo, Echinochloa crus-galli; settings: pre-emergence, dosage 320 g/ha, scored visually after 3 weeks vs untreated controls
How it was run: as §1

LOLRI = assay: Pre-emergence action against LOLRI; type: in vivo, Lolium rigidum; settings: dosage 320 g/ha, scored visually after 3 weeks vs untreated controls
How it was run: as §1

SETVI [5] = assay: Pre-emergence action against SETVI; type: in vivo, Setaria viridis; settings: pre-emergence, dosage 320 g/ha, scored visually after 3 weeks vs untreated controls
How it was run: as §1

ABUTH [6] = assay: Pre-emergence action against ABUTH; type: in vivo, Abutilon theophrasti; settings: pre-emergence, dosage 320 g/ha, scored visually after 3 weeks vs untreated controls
How it was run: as §1

AMARE [7] = assay: Pre-emergence action against AMARE; type: in vivo, Amaranthus retroflexus; settings: pre-emergence, dosage 320 g/ha, scored visually after 3 weeks vs untreated controls
How it was run: as §1

MATIN [8] = assay: Pre-emergence action against MATIN; type: in vivo, Matricaria inodora; settings: Dosage 320 g/ha, pre-emergence
How it was run: as §1

PHBPU [9] = assay: Pre-emergence action against PHBPU; type: in vivo, Pharbitis purpurea; settings: Dosage 320 g/ha, pre-emergence
How it was run: as §1

POLCO [10] = assay: Pre-emergence action against POLCO; type: in vivo, Polygonum convolvulus; settings: Fallopia convolvulus, 504 h; Dosage 320 g/ha, pre-emergence
How it was run: as §1

STEME [11] = assay: Pre-emergence action against STEME; type: in vivo, Stellaria media; settings: Dosage 320 g/ha, pre-emergence
How it was run: as §1

VIOTR [12] = assay: Pre-emergence action against VIOTR; type: in vivo, Viola tricolor; settings: Dosage 320 g/ha, pre-emergence
How it was run: as §1

VERPE [13] = assay: Pre-emergence action against VERPE; type: in vivo, Veronica persica; settings: Dosage 320 g/ha, pre-emergence
How it was run: as §1

HORMU = assay: Pre-emergence action against HORMU; type: in vivo, Hordeum murinum; settings: Dosage 320 g/ha
How it was run: as §1

AVEFA [14] = assay: Post-emergence action against AVEFA; type: in vivo, Avena fatua; settings: post-emergence, dosage 80 g/ha, visual assessment about 3 weeks after treatment vs untreated controls
How it was run: (§2)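 Post-emergence foliar spray on greenhouse plants at the one-leaf stage, using wettable-powder or emulsion-concentrate formulations in water (600 to […], plus 0.2% wetting agent). Damage scored by eye roughly 3 weeks later against untreated plants: 0% = like control, 100% = dead.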

DIGSA [15] = assay: Post-emergence action against DIGSA; type: in vivo, Digitaria sanguinalis; settings: dosage 80 g/ha, visual assessment about 3 weeks after treatment vs untreated controls
How it was run: as §2

ECHCG [16] = assay: Post-emergence action against ECHCG; type: in vivo, Echinochloa crus-galli; settings: post-emergence, dosage 80 g/ha, visual assessment about 3 weeks after treatment vs untreated controls
How it was run: as §2

SETVI [17] = assay: Post-emergence action against SETVI; type: in vivo, Setaria viridis; settings: post-emergence, dosage 80 g/ha, visual assessment about 3 weeks after treatment vs untreated controls
How it was run: as §2

ABUTH [18] = assay: Post-emergence action against ABUTH; type: in vivo, Abutilon theophrasti; settings: post-emergence, dosage 80 g/ha, visual assessment about 3 weeks after treatment vs untreated controls
How it was run: as §2

AMARE [19] = assay: Post-emergence action against AMARE; type: in vivo, Amaranthus retroflexus; settings: post-emergence, dosage 80 g/ha, visual assessment about 3 weeks after treatment vs untreated controls
How it was run: as §2

MATIN [20] = assay: Post-emergence action against MATIN; type: in vivo, Matricaria inodora; settings: post-emergence, dosage 80 g/ha, visual assessment about 3 weeks after treatment vs untreated controls
How it was run: as §2

PHBPU [21] = assay: Post-emergence action against PHBPU; type: in vivo, Pharbitis purpurea; settings: post-emergence, dosage 80 g/ha
How it was run: as §2

POLCO [22] = assay: Post-emergence action against POLCO; type: in vivo, Polygonum convolvulus; settings: post-emergence, dosage 80 g/ha
How it was run: as §2

STEME [23] = assay: Post-emergence action against STEME; type: in vivo, Stellaria media; settings: post-emergence, dosage 80 g/ha
How it was run: as §2

VIOTR [24] = assay: Post-emergence action against VIOTR; type: in vivo, Viola tricolor; settings: post-emergence, dosage 80 g/ha
How it was run: as §2

VERPE [25] = assay: Post-emergence action against VERPE; type: in vivo, Veronica persica; settings: dosage 80 g/ha
How it was run: as §2

ALOMY [26] = assay: Post-emergence action against ALOMY; type: in vivo, Alopecurus myosuroides; settings: Dosage 80 g/ha, post-emergence
How it was run: as §2

Cn1nnnc1NC(=O)c1ccc(C(F)(F)F)c(C(=O)C(F)F)c1Cl [1-163]
80%: pest or weed control at 320 g/ha (PHBPU [9]; Ipomoea purpurea, 504 h) | pest or weed control at 80 g/ha (SETVI [17]; Setaria viridis, 504 h, read-out: Post-emergence action against SETVI (herbicidal action in percent))
90%: pest or weed control at 320 g/ha (ALOMY [1]; Alopecurus myosuroides, 504 h, read-out: Pre-emergence action against ALOMY (herbicidal activity in percent)) | pest or weed control at 320 g/ha (LOLRI; Lolium rigidum, 504 h, read-out: Pre-emergence action against LOLRI (herbicidal activity)) | pest or weed control at 320 g/ha (POLCO [10]) | pest or weed control at 320 g/ha (HORMU; Hordeum murinum, 504 h) | pest or weed control at 80 g/ha (AVEFA [14]; Avena fatua, 504 h, read-out: Post-emergence action against AVEFA (herbicidal action in percent)) | pest or weed control at 80 g/ha (ECHCG [16]; Echinochloa crus-galli, 504 h, read-out: Post-emergence action against ECHCG (herbicidal action in percent)) | pest or weed control at 80 g/ha (ABUTH [18]; Abutilon theophrasti, 504 h, read-out: Post-emergence action against ABUTH (herbicidal action in percent)) | pest or weed control at 80 g/ha (AMARE [19]; Amaranthus retroflexus, 504 h, read-out: Post-emergence action against AMARE (herbicidal action in percent)) | pest or weed control at 80 g/ha (MATIN [20]; Tripleurospermum inodorum, 504 h, read-out: Post-emergence action against MATIN (herbicidal action in percent)) | pest or weed control at 80 g/ha (PHBPU [21]; Ipomoea purpurea, 504 h) | pest or weed control at 80 g/ha (VIOTR [24]; Viola tricolor, 504 h) | pest or weed control at 80 g/ha (VERPE [25]; Veronica persica, 504 h)
100%: pest or weed control at 320 g/ha (AVEFA [2]; Avena fatua, 504 h, read-out: Pre-emergence action against AVEFA (herbicidal activity)) | Pre-emergence action against DIGSA (herbicidal activity) (DIGSA [3]) | pest or weed control at 320 g/ha (ECHCG [4]; Echinochloa crus-galli, 504 h, read-out: Pre-emergence action against ECHCG (herbicidal activity)) | pest or weed control at 320 g/ha (SETVI [5]; Setaria viridis, 504 h, read-out: SETVI (Table B8, pre-emergence herbicidal activity)) | pest or weed control at 320 g/ha (ABUTH [6]; Abutilon theophrasti, 504 h, read-out: Pre-emergence action against ABUTH (herbicidal activity)) | pest or weed control at 320 g/ha (AMARE [7]; Amaranthus retroflexus, 504 h, read-out: Pre-emergence action against AMARE (herbicidal activity)) | pest or weed control at 320 g/ha (MATIN [8]; Tripleurospermum inodorum, 504 h) | pest or weed control at 320 g/ha (STEME [11]; Stellaria media, 504 h) | pest or weed control at 320 g/ha (VIOTR [12]; Viola tricolor, 504 h) | pest or weed control at 320 g/ha (VERPE [13]; Veronica persica, 504 h) | Post-emergence action against DIGSA (herbicidal action in percent) (DIGSA [15]) | pest or weed control at 80 g/ha (POLCO [22]; Fallopia convolvulus, 504 h) | pest or weed control at 80 g/ha (STEME [23]; Stellaria media, 504 h)

CCCC(=O)c1c(C(F)(F)F)ccc(C(=O)Nc2nnnn2CC)c1C [2-16]
80: Post-emergence action against POLCO (POLCO [22]) | Post-emergence action against VERPE (VERPE [25])
80%: Pre-emergence action against HORMU (HORMU) | Post-emergence action against ALOMY (ALOMY [26])
100: Post-emergence action against PHBPU (PHBPU [21]) | Post-emergence action against STEME (STEME [23]) | Post-emergence action against VIOTR (VIOTR [24])
100%: Pre-emergence action against DIGSA (herbicidal activity) (DIGSA [3]) | Pre-emergence action against ECHCG (herbicidal activity) (ECHCG [4]) | Pre-emergence action against ABUTH (herbicidal activity) (ABUTH [6]) | Pre-emergence action against AMARE (herbicidal activity) (AMARE [7]) | Pre-emergence action against VERPE (VERPE [13]) | Post-emergence action against ABUTH (herbicidal action in percent) (ABUTH [18]) | Post-emergence action against AMARE (herbicidal action in percent) (AMARE [19]) | Post-emergence action against MATIN (herbicidal action in percent) (MATIN [20])
90%: Pre-emergence action against ALOMY (herbicidal activity in percent) (ALOMY [1]) | Pre-emergence action against AVEFA (herbicidal activity) (AVEFA [2]) | Pre-emergence action against LOLRI (herbicidal activity) (LOLRI) | SETVI (Table B8, pre-emergence herbicidal activity) (SETVI [5]) | Pre-emergence action against MATIN (MATIN [8]) | Pre-emergence action against PHBPU (PHBPU [9]) | Pre-emergence action against STEME (STEME [11]) | Pre-emergence action against VIOTR (VIOTR [12]) | Post-emergence action against AVEFA (herbicidal action in percent) (AVEFA [14]) | Post-emergence action against DIGSA (herbicidal action in percent) (DIGSA [15]) | Post-emergence action against ECHCG (herbicidal action in percent) (ECHCG [16]) | Post-emergence action against SETVI (herbicidal action in percent) (SETVI [17])
